US10316028B2, “Orexin receptor antagonists” (Heptares Therapeutics Limited, priority 2012, dated 2019)

Each molecule was assayed against T1, human Orexin-2 receptor (Homo sapiens, UniProt O43614) (assay: 3H-EMPA radioligand binding assay). Details: 3H-EMPA displacement, membranes of HEK293 cells transfected with human Orexin-2 receptor; KI by Cheng-Prussoff; read-out: OX2 pKi ave (converted).
T1 construct: expressed in transfected cells; host or cells: HEK293 cells (transient transfection, Genejuice); membranes
T1 sequence (O43614 1-444): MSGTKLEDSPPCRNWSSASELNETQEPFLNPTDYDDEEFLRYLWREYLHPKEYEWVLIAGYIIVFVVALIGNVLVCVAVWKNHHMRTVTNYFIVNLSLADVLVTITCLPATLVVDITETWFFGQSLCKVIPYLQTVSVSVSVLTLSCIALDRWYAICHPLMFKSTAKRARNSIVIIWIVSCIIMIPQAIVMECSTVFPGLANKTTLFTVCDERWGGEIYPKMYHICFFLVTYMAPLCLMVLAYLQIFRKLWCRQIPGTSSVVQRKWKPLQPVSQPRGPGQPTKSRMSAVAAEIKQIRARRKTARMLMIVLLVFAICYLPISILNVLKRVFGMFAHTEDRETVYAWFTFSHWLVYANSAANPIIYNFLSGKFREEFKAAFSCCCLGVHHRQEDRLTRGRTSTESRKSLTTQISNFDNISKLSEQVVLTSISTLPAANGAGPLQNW
Summary of the method: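 Membranes from HEK293 cells transiently transfected with human orexin-2 receptor cDNA, assayed with [3H]EMPA. Bound ligand collected on PEI-treated GF/B filters and counted by scintillation; IC50 from inhibition curves, Ki by Cheng-Prusoff.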

Structure (SMILES)	Ki [nM]
Cc1ccc(N2C(=O)N(Cc3c(F)cc(F)cc3F)c3ncccc3S2(=O)=O)cc1C [Example 101, 2-(3,4-Dimethylphenyl)-4-(2,4,6-trifluorobenzyl)-2H-pyrido[2,3-e][1,2,4]thiadiazin-3(4H)-one 1,1-dioxide]	3.47
COc1cc(F)c(CN2C(=O)N(c3ccc(C)c(C)c3)S(=O)(=O)c3cccnc32)c(F)c1 [Example 102, 4-(2,6-Difluoro-4-methoxybenzyl)-2-(3,4-dimethylphenyl)-2H-pyrido[2,3-e][1,2,4]thiadiazin-3(4H)-one 1,1-dioxide]	0.776
Cc1cc(C)cc(N2C(=O)N(Cc3c(F)cc(F)cc3F)c3ncccc3S2(=O)=O)c1 [Example 103, 2-(3,5-Dimethylphenyl)-4-(2,4,6-trifluorobenzyl)-2H-pyrido[2,3-e][1,2,4]thiadiazin-3(4H)-one 1,1-dioxide]	4.27
COc1ccc(N2C(=O)N(Cc3c(F)cc(F)cc3OC)c3ccccc3S2(=O)=O)cc1OC [Example 104, 4-(2,4-Difluoro-6-methoxybenzyl)-2-(3,4-dimethoxyphenyl)-2H-1,2,4-benzothiadiazin-3(4H)-one 1,1-dioxide]	7.08
COc1ccc(N2C(=O)N(Cc3c(F)cc(F)cc3F)c3ccccc3S2(=O)=O)cc1OC [Example 105, 2-(3,4-Dimethoxyphenyl)-4-(2,4,6-trifluorobenzyl)-2H-1,2,4-benzothiadiazin-3(4H)-one 1,1-dioxide]	1.95
COc1ccc(N2C(=O)N(Cc3c(F)cc(C)cc3Cl)c3ccccc3S2(=O)=O)cc1OC [Example 106, 4-(2-Chloro-6-fluoro-4-methylbenzyl)-2-(3,4-dimethoxyphenyl)-2H-1,2,4-benzothiadiazin-3(4H)-one 1,1-dioxide]	0.741
COc1ccc(N2C(=O)N(Cc3c(F)cc(F)cc3Cl)c3ccccc3S2(=O)=O)cc1OC [Example 107, 4-(2-Chloro-4,6-difluorobenzyl)-2-(3,4-dimethoxyphenyl)-2H-1,2,4-benzothiadiazin-3(4H)-one 1,1-dioxide]	1.05
COc1cc(F)c(CN2C(=O)N(c3ccc(OC)c(OC)c3)S(=O)(=O)c3ccccc32)c(F)c1 [Example 108, 2-(3,4-Dimethoxyphenyl)-4-(2,6-difluoro-4-methoxybenzyl)-2H-1,2,4-benzothiadiazin-3(4H)-one 1,1-dioxide]	0.468
COc1cc(F)c(CN2C(=O)N(c3cccc(SC)c3)S(=O)(=O)c3ccccc32)c(F)c1 [Example 109, 4-(2,6-Difluoro-4-methoxybenzyl)-2-[3-(methylsulfanyl)phenyl]-2H-1,2,4-benzothiadiazin-3(4H)-one 1,1-dioxide]	3.24
CSc1cccc(N2C(=O)N(Cc3c(F)cc(F)cc3Cl)c3ccccc3S2(=O)=O)c1 [Example 110, 4-(2-Chloro-4,6-difluorobenzyl)-2-[3-(methylsulfanyl)phenyl]-2H-1,2,4-benzothiadiazin-3(4H)-one 1,1-dioxide]	2.69
COc1cc(F)c(CN2C(=O)N(c3cccc(S(C)(=O)=O)c3)S(=O)(=O)c3ccccc32)c(F)c1 [Example 111, 4-(2,6-Difluoro-4-methoxybenzyl)-2-[3-(methylsulfonyl)phenyl]-2H-1,2,4-benzothiadiazin-3(4H)-one 1,1-dioxide]	2.24
CS(=O)(=O)c1cccc(N2C(=O)N(Cc3c(F)cc(F)cc3F)c3ccccc3S2(=O)=O)c1 [Example 112, 2-[3-(Methylsulfonyl)phenyl]-4-(2,4,6-trifluorobenzyl)-2H-1,2,4-benzothiadiazin-3(4H)-one 1,1-dioxide]	26.9
COc1cc(F)c(CN2C(=O)N(c3ccc(OC)c(OC)c3)S(=O)(=O)c3ccccc32)c(Cl)c1 [Example 113, 4-(2-Chloro-6-fluoro-4-methoxybenzyl)-2-(3,4-dimethoxyphenyl)-2H-1,2,4-benzothiadiazin-3(4H)-one 1,1-dioxide]	0.0912
Cc1cc(N2C(=O)N(Cc3c(F)cc(F)cc3F)c3ccccc3S2(=O)=O)cc(C)c1O [Example 114, 2-(4-Hydroxy-3,5-dimethylphenyl)-4-(2,4,6-trifluorobenzyl)-2H-1,2,4-benzothiadiazin-3(4H)-one 1,1-dioxide]	12.9
COc1c(C)cc(N2C(=O)N(Cc3c(F)cc(F)cc3F)c3ccccc3S2(=O)=O)cc1C [Example 115, 2-(4-methoxy-3,5-dimethylphenyl)-4-(2,4,6-trifluorobenzyl)-2H-1,2,4-benzothiadiazin-3(4H)-one 1,1-dioxide]	0.355
COc1ccc(N2C(=O)N(Cc3c(F)cc(O)cc3F)c3ccccc3S2(=O)=O)cc1OC [Example 116, 4-(2,6-Difluoro-4-hydroxybenzyl)-2-(3,4-dimethoxyphenyl)-2H-1,2,4-benzothiadiazin-3(4H)-one 1,1-dioxide]	1.15

Structure (SMILES)	Ki [nM]
O=C1N(Cc2c(F)cccc2Cl)c2ccccc2S(=O)(=O)N1CC1CCOCC1 [Example 117, 4-(2-Chloro-6-fluorobenzyl)-2-(tetrahydro-2H-pyran-4-ylmethyl)-2H-1,2,4-benzothiadiazin-3(4H)-one 1,1-dioxide]	372
CC1(CN2C(=O)N(Cc3c(F)cccc3Cl)c3ccccc3S2(=O)=O)COC1 [Example 118, 4-(2-Chloro-6-fluorobenzyl)-2-[(3-methyloxetan-3-yl)methyl]-2H-1,2,4-benzothiadiazin-3(4H)-one 1,1-dioxide]	372
Cc1nc(CN2C(=O)N(Cc3c(F)cccc3F)c3ccccc3S2(=O)=O)cs1 [Example 119, 4-(2,6-Difluorobenzyl)-2-[(2-methyl-1,3-thiazol-4-yl)methyl]-2H-1,2,4-benzothiadiazin-3(4H)-one 1,1-dioxide]	66.1
Cc1noc(C)c1CCN1C(=O)N(Cc2c(F)cccc2F)c2ccccc2S1(=O)=O [Example 120, 4-(2,6-Difluorobenzyl)-2-[2-(3,5-dimethyl-1,2-oxazol-4-yl)ethyl]-2H-1,2,4-benzothiadiazin-3(4H)-one 1,1-dioxide]	178
COc1ccnc(CN2C(=O)N(Cc3c(F)cccc3F)c3ccccc3S2(=O)=O)c1OC [Example 121, 4-(2,6-Difluorobenzyl)-2-[(3,4-dimethoxypyridin-2-yl)methyl]-2H-1,2,4-benzothiadiazin-3(4H)-one 1,1-dioxide]	87.1
COc1ccc(N2C(=O)N(Cc3c(F)cccc3Cl)c3ccccc3S2(=O)=O)cn1 [Example 122, 4-(2-Chloro-6-fluorobenzyl)-2-(6-methoxypyridin-3-yl)-2H-1,2,4-benzothiadiazin-3(4H)-one 1,1-dioxide]	16.6
COc1ccc(N2C(=O)N(Cc3c(F)cccc3Cl)c3c(F)cccc3S2(=O)=O)cn1 [Example 123, 4-(2-Chloro-6-fluorobenzyl)-5-fluoro-2-(6-methoxypyridin-3-yl)-2H-1,2,4-benzothiadiazin-3(4H)-one 1,1-dioxide]	43.7
O=C1N(Cc2c(F)cc(F)cc2F)c2ccccc2S(=O)(=O)N1c1ccc2ncsc2c1 [Example 124, 2-(1,3-Benzothiazol-6-yl)-4-(2,4,6-trifluorobenzyl)-2H-1,2,4-benzothiadiazin-3(4H)-one 1,1-dioxide]	5.01
Cn1nc(CN2C(=O)N(Cc3c(F)cccc3F)c3ccccc3S2(=O)=O)c2ccccc21 [Example 125, 4-(2,6-Difluorobenzyl)-2-[(1-methyl-1H-indazol-3-yl)methyl]-2H-1,2,4-benzothiadiazin-3(4H)-one 1,1-dioxide]	38
O=C1N(Cc2c(F)cccc2F)c2ccccc2S(=O)(=O)N1Cc1cc(=O)[nH]c2ccccc12 [Example 126, 4-(2,6-Difluorobenzyl)-2-[(2-oxo-1,2-dihydroquinolin-4-yl)methyl]-2H-1,2,4-benzothiadiazin-3(4H)-one 1,1-dioxide]	35.5
Cc1cc(CN2C(=O)N(Cc3c(F)cccc3Cl)c3ccccc3S2(=O)=O)n(C)n1 [Example 127, 4-(2-Chloro-6-fluorobenzyl)-2-[(1,3-dimethyl-1H-pyrazol-5-yl)methyl]-2H-1,2,4-benzothiadiazin-3(4H)-one 1,1-dioxide]	58.9
O=C1N(Cc2c(F)cccc2Cl)c2ccccc2S(=O)(=O)N1Cc1ccccn1 [Example 128, 4-(2-Chloro-6-fluorobenzyl)-2-(pyridin-2-ylmethyl)-2H-1,2,4-benzothiadiazin-3(4H)-one 1,1-dioxide]	79.4
Cc1cc(CN2C(=O)N(Cc3c(F)cccc3Cl)c3ccccc3S2(=O)=O)no1 [Example 129, 4-(2-Chloro-6-fluorobenzyl)-2-[(5-methyl-1,2-oxazol-3-yl)methyl]-2H-1,2,4-benzothiadiazin-3(4H)-one 1,1-dioxide]	115
COc1ccc(N2C(=O)N(Cc3ccccc3C)c3c(F)cccc3S2(=O)=O)cn1 [Example 130, 5-Fluoro-2-(6-methoxypyridin-3-yl)-4-(2-methylbenzyl)-2H-1,2,4-benzothiadiazin-3(4H)-one 1,1-dioxide]	87.1
Cn1ccnc1CN1C(=O)N(Cc2c(F)cccc2F)c2ccccc2S1(=O)=O [Example 131, 4-(2,6-Difluorobenzyl)-2-[(1-methyl-1H-imidazol-2-yl)methyl]-2H-1,2,4-benzothiadiazin-3(4H)-one 1,1-dioxide]	295
Cn1cc(N2C(=O)N(Cc3c(F)cccc3Cl)c3ccccc3S2(=O)=O)ccc1=O [Example 132, 4-(2-Chloro-6-fluorobenzyl)-2-(1-methyl-6-oxo-1,6-dihydropyridin-3-yl)-2H-1,2,4-benzothiadiazin-3(4H)-one 1,1-dioxide]	302
